Assay results: patent US20250340516A1, “Isoquinolinones as Modulators of POLRMT” (Pretzel Therapeutics, Inc., priority 2024, published 2025)

Target: POLRMT (Homo sapiens (Human), UniProt O00411)
Assay: homogeneous TR-FRET assay of POLRMT inhibition (mitochondrial transcription, 407 bp RNA product)
Format: biochemical
Conditions: 7.5 nM POLRMT, 15 nM TFB2M, 30 nM TFAM, 0.5 nM DNA template, 500 μM NTPs, 37° C., 60 minutes, * = aggregation of data sets, read-out: IC50 values for isoquinolinone compounds
Method: The inhibitory activity of the compounds of the present invention against POLRMT were determined by assays based on Bergbrede, T., et al., “An adaptable high-throughput technology enabling the identification of specific transcription modulators,” SLAC Discov., 22, 378-386 (2017).
The ability of some compounds of the present invention to inhibit POLRMT were determined in a homogeneous TR-FRET Assay using high-throughput screening in a 384-well plate format. This method is used to monitor the activity of mitochondrial transcription through measurement of its product, a 407 bp long RNA transcript. Detection of the product is facilitated by hybridization of two DNA-oligonucleotide probes to specific and adjacent sequences within the RNA product sequence. Upon annealing of the probes, two fluorophores are coupled directly to an acceptor nucleotide probe (ATTO647, 5′), or introduced via a coupled streptavidin with a biotinylated donor nucleotide probe (Europium cryptate) that is brought into sufficient proximity to serve as a fluorescence-donor-acceptor pair. Thus, a FRET signal at 665 nm is generated upon excitation at 340 nm.
Proteins used as transcription factors (POLRMT: NP_005026.3, TFAM: NP_003192.1, TFB2M: NP_071761.1) are diluted from their stocks to working concentrations of 1 μM, 20 μM and 4 μM respectively, in a dilution buffer containing 20 mM Tris-HCl (pH 8.0), 200 mM NaCl, 10% (v/v) glycerol, 1 mM Dithiothreitol (DTT), 0.5 mM EDTA.
DNA template is a pUC18 plasmid with the mitochondrial light strand promotor sequence (1-477) cloned between HindIII and BamHI sites. The DNA template is restriction linearized proximal to the promotor 3′-end (pUC-LSP).
The reaction mixture (10 uL) containing 7.5 nM POLRMT, 15 nM of TFB2M, 30 nM of TFAM, 0.5 nM of DNA template and 500 μM nucleotide triphosphate mix (NTPs) in a reaction buffer (containing 10 mM Tris-HCl (pH 7.5), 10 mM MgCl2, 40 mM NaCl, 10 mM DTT, 0.005% (w/v) Tween-20, 160 units/ml Rnase inhibitor and 0.1 mg/mL BSA) are dispensed to compounds in microplates, using a Thermo Multidrop® dispenser, and incubated at 37° C. in a VWR INCU-Line incubator for 60 minutes after mixing. No nucleotide triphosphate mix is added to negative control samples. Microplates with compounds to be tested in the assay are prepared from 10 mM compound stocks in 100% DMSO, equal amounts of DMSO without any compound are added to positive control and negative control samples.
During the incubation, a mix of the detection reagents is prepared in a buffer such that the enzymatic reaction is terminated due to chelating of Mg-ions and increased ionic strength, containing 50 mM Tris-HCl (pH 7.5), 700 mM NaCl, 20 mM EDTA, and 0.01% (w/v) Tween-20. Europium-streptavidin is pre-incubated with a 200-fold molar excess of a random sequence oligonucleotide to block unspecific binding of oligo, for two hours at ambient temperature in the dark. Afterwards, the blocked Europium-streptavidin is kept on ice until use.
At the end of the enzymatic reaction time, 5 μL detection oligo mix in the detection buffer is added, and assay plates are mixed and kept at ambient temperature for one hour, protected from light. The concentration of the Acceptor nucleotide oligo (e.g., ATTO647N-5′-[…]-3′ (SEQ ID NO: 1)) and Donor nucleotide oligo (e.g., bio-5′-AACACATCTCT(-bio)GCCAAACCCCA-bio-3′ (SEQ ID NO: 2)) in each assay well is 1 nM, and 3 nM, respectively.
After incubation with oligo mix, 5 μL of pre-blocked Europium-streptavidin reagent is dispensed to each assay well, assay plates are again mixed and kept at ambient temperature for one hour, protected from light.
The generated signal is measured with BMG Pherastar microtiter plate reader with a TRF light unit, using excitation at 340 nm, an integration time of 200 μs, and a delay time of 100 μs, before detection at 620 nm and 665 nm. The ratio of donor- and acceptor-fluorescence is used as a measure of the generated transcript product (i.e. enzymatic activity).

Chain of POLRMT (O00411 42-1230): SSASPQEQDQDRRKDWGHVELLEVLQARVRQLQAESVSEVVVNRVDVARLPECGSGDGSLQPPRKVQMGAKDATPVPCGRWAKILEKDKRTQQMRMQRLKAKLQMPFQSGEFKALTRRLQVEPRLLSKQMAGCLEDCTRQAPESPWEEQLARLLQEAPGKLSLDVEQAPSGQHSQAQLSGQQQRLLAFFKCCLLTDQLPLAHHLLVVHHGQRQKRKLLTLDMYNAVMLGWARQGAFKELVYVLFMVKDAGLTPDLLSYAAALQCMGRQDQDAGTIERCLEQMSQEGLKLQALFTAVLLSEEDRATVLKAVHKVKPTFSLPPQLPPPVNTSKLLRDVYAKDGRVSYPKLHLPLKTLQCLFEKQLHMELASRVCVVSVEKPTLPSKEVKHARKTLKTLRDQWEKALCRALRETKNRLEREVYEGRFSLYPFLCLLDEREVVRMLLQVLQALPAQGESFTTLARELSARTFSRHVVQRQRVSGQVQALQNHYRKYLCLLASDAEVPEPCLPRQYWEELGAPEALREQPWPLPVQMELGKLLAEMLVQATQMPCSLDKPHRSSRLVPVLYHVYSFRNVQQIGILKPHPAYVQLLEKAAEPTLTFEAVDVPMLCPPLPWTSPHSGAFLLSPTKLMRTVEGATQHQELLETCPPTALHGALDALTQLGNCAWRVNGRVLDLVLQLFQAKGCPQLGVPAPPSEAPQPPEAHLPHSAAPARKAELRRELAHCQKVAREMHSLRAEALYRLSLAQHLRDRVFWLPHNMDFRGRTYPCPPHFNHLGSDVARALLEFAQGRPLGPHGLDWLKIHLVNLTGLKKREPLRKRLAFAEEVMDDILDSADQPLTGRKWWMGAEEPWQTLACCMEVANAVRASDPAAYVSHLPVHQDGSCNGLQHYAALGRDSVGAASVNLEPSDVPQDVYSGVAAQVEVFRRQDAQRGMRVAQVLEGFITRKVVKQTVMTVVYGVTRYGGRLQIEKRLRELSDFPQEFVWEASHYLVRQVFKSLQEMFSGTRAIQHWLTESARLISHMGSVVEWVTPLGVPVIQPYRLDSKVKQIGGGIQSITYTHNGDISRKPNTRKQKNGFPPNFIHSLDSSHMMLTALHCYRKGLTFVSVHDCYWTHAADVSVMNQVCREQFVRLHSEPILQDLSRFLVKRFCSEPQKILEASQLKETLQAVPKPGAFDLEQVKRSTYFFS

IC50 [nM] | Compound
30 | Cc1cc(F)ccc1-c1c[nH]c(=O)c2cc(O[C@H](C)C(=O)N3CCN(C(N)=O)CC3)ccc12 [Example 56, (R)-4-(2-((4-(4-fluoro-2-methylphenyl)-1-oxo-1,2-dihydroisoquinolin-7-yl)oxy)propanoyl)piperazine-1-carboxamide]
3000 | Cc1ccccc1-c1c[nH]c(=O)c2cc(O[C@H](C)C(=O)N3CCCCC(N(C)C)C3)ccc12 (single isomer, unassigned) [Example 75]
> 100000 | N#CCOc1ccc2c(-c3ccccc3OC(F)(F)F)c[nH]c(=O)c2c1 [Example 49, 2-((1-oxo-4-(2-(trifluoromethoxy)phenyl)-1,2-dihydroisoquinolin-7-yl)oxy)acetonitrile]
100 | Cc1ccccc1-c1c[nH]c(=O)c2cc(O[C@H](C)C(=O)N3CC[C@H](N(C)C)C3)ccc12 [Example 65, 7-(((R)-1-((S)-3-(dimethylamino)pyrrolidin-1-yl)-1-oxopropan-2-yl)oxy)-4-(o-tolyl)isoquinolin-1(2H)-one]
100 | Cc1ccccc1-c1c[nH]c(=O)c2cc(O[C@H](C)C(=O)NC3(C(N)=O)CC3)ccc12 [Example 62, (R)-1-(2-((1-oxo-4-(o-tolyl)-1,2-dihydroisoquinolin-7-yl)oxy)propanamido)cyclopropane-1-carboxamide]
30 | Cc1ccccc1-c1c[nH]c(=O)c2cc(O[C@H](C)C(=O)N3CCCC(C(C)(C)C(N)=O)C3)ccc12 (single isomer, unassigned) [Example 45]
1000 | CCNC1CCN(C(=O)[C@@H](C)Oc2ccc3c(-c4ccccc4C)c[nH]c(=O)c3c2)CC1 [Example 77, (R)-7-((1-(4-(ethylamino)piperidin-1-yl)-1-oxopropan-2-yl)oxy)-4-(o-tolyl)isoquinolin-1(2H)-one]

More lines, now with the values behind:

Compound | IC50 [nM]
COC(=O)CN(C)C(=O)[C@H](C)Oc1ccc2c(-c3ccccc3C)c[nH]c(=O)c2c1 [Example 25, methyl (S)-N-methyl-N-(2-((1-oxo-4-(o-tolyl)-1,2-dihydroisoquinolin-7-yl)oxy)propanoyl)glycinate] | > 100000
Cc1ccccc1-c1c[nH]c(=O)c2cc(O[C@H](C)C(=O)N3CCCC(CC(=O)O)C3)ccc12 (single isomer, unassigned) [Example 13] | 70
C[C@@H](Oc1ccc2c(-c3ccc(F)cc3Cl)c[nH]c(=O)c2c1)C(=O)N1CC(C(N)=O)CC(F)(F)C1 (single isomer, unassigned) [Example 9] | 200
Cc1ccccc1-c1c[nH]c(=O)c2cc(O[C@H](C)C(=O)N[C@H](C)C(N)=O)ccc12 [Example 21, (R)-N-((R)-1-amino-1-oxopropan-2-yl)-2-((1-oxo-4-(o-tolyl)-1,2-dihydroisoquinolin-7-yl)oxy)propanamide] | 200
Cc1ccccc1-c1c[nH]c(=O)c2cc(O[C@H](C)C(=O)N3CCC[C@@H](CC(N)=O)C3)ccc12 [Example 39, 2-((S)-1-((R)-2-((1-oxo-4-(o-tolyl)-1,2-dihydroisoquinolin-7-yl)oxy)propanoyl)piperidin-3-yl)acetamide] | 40
C[C@@H](Oc1ccc2c(-c3ccc(F)cc3Cl)c[nH]c(=O)c2c1)C(=O)N1CCCC(C2(C(=O)O)CC2)C1 (single isomer, unassigned) [Example 36] | 80
Cc1ccccc1-c1c[nH]c(=O)c2cc(O[C@H](C)C(=O)N3CCC(C)(C(=O)O)CC3)ccc12 [Example 15, (R)-4-methyl-1-(2-((1-oxo-4-(o-tolyl)-1,2-dihydroisoquinolin-7-yl)oxy)propanoyl)piperidine-4-carboxylic acid] | 60
Cc1ccccc1-c1c[nH]c(=O)c2cc(O[C@H](C)C(=O)N3CCN(C(N)=O)CC3)ccc12 [Example 16, (R)-4-(2-((1-oxo-4-(o-tolyl)-1,2-dihydroisoquinolin-7-yl)oxy)propanoyl)piperazine-1-carboxamide] | 100
C[C@@H](C(=O)N1CCC[C@H](C(=O)O)C1)N(C)c1ccc2c(-c3ccc(F)cc3Cl)c[nH]c(=O)c2c1 (single isomer, unassigned) [Example 4] | 100
Cc1cccc(C)c1-c1c[nH]c(=O)c2cc(O[C@H](C)C(=O)N3CCC(C)(C(=O)O)CC3)ccc12 [Example 20, (R)-1-(2-((4-(2,6-dimethylphenyl)-1-oxo-1,2-dihydroisoquinolin-7-yl)oxy)propanoyl)-4-methylpiperidine-4-carboxylic acid] | 100
